Assay results as given in PubChem BioAssay AID2060884 (Molecular Pharmacology Branch, DTP, NCI, 2025).

System: NCI-H929 complex spheroids, viability % test/control
Assay: Anticancer human tumor NCI-H929 cell line growth inhibition [RAS];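 also: compound exposure lasted seven days before viability was read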;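 as to viability, T/C: 100% = DMSO vehicle control viability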
Details: for IC50: curve of first compound; for viability, T/C: stronger effect = lower value; active = viability on the fitted dose curve at most 10% of control; inactive = the rest
Method in brief: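 Agents were tested in combination matrices in half-log decrements from a top concentration at or near clinical Cmax (10 microM if undetermined). Targets were multi-cell spheroids of tumour lines plus HUVEC and MSC stromal cells.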

[1] = second compound 0.000949 µM, first compound 0.0316 µM
[2] = second compound 0.000949 µM, first compound 0.1 µM
[3] = second compound 0.003 µM, first compound 0.0316 µM
[4] = second compound 0.003 µM, first compound 0.1 µM
[5] = second compound 0.00949 µM, first compound 0.0316 µM
[6] = second compound 0.00949 µM, first compound 0.1 µM
[7] = second compound 0.03 µM, first compound 0.0316 µM
[8] = second compound 0.03 µM, first compound 0.1 µM
[9] = second compound 0.0949 µM, first compound 0.0316 µM
[10] = second compound 0.0949 µM, first compound 0.1 µM
[11] = second compound 0.3 µM, first compound 0.0316 µM
[12] = second compound 0.3 µM, first compound 0.1 µM

CC(C)n1nc(-c2ccc3oc(N)nc3c2)c2c(N)ncnc21 + CCn1c(-c2cccnc2C(C)OC)c2c3cc(ccc31)N1CCOC(CC(NC(=O)C(C(C)C)N(C)C(=O)C3(F)CCN(C(=O)C#CC(C)(C)N(C)C)CC3)C(=O)N3CCCC(N3)C(=O)OCC(C)(C)C2)C1
29.7 nM: IC50 (second compound 0.0949 µM)
active: viability, T/C [2] 2.22% | viability, T/C [4] 2.31% | viability, T/C [6] 1.89% | viability, T/C [8] 1.72% | viability, T/C [10] 1.3% | viability, T/C [12] 1.08%
33.9 nM: IC50 (second compound 0.000949 µM)
36.1 nM: IC50 (second compound 0.03 µM)
27.1 nM: IC50 (second compound 0.3 µM)
38.8 nM: IC50 (second compound 0.003 µM)
inactive: viability, T/C (second compound 0.000949 µM, first compound 0.000316 µM) 104% | viability, T/C (second compound 0.000949 µM, first compound 0.001 µM) 103% | viability, T/C (second compound 0.000949 µM, first compound 0.00316 µM) 107% | viability, T/C (second compound 0.000949 µM, first compound 0.01 µM) 101% | viability, T/C [1] 53.1% | viability, T/C (second compound 0.003 µM, first compound 0.000316 µM) 105% | viability, T/C (second compound 0.003 µM, first compound 0.001 µM) 107% | viability, T/C (second compound 0.003 µM, first compound 0.00316 µM) 105% | viability, T/C (second compound 0.003 µM, first compound 0.01 µM) 98.5% | viability, T/C [3] 60.3% | viability, T/C (second compound 0.00949 µM, first compound 0.000316 µM) 101% | viability, T/C (second compound 0.00949 µM, first compound 0.001 µM) 105% | viability, T/C (second compound 0.00949 µM, first compound 0.00316 µM) 106% | viability, T/C (second compound 0.00949 µM, first compound 0.01 µM) 99.8% | viability, T/C [5] 61.4% | viability, T/C (second compound 0.03 µM, first compound 0.000316 µM) 97.8% | viability, T/C (second compound 0.03 µM, first compound 0.001 µM) 104% | viability, T/C (second compound 0.03 µM, first compound 0.00316 µM) 106% | viability, T/C (second compound 0.03 µM, first compound 0.01 µM) 100% | viability, T/C [7] 56.2% | viability, T/C (second compound 0.0949 µM, first compound 0.000316 µM) 98.7% | viability, T/C (second compound 0.0949 µM, first compound 0.001 µM) 108% | viability, T/C (second compound 0.0949 µM, first compound 0.00316 µM) 108% | viability, T/C (second compound 0.0949 µM, first compound 0.01 µM) 100% | viability, T/C [9] 47.2% | viability, T/C (second compound 0.3 µM, first compound 0.000316 µM) 102% | viability, T/C (second compound 0.3 µM, first compound 0.001 µM) 107% | viability, T/C (second compound 0.3 µM, first compound 0.00316 µM) 108% | viability, T/C (second compound 0.3 µM, first compound 0.01 µM) 99.5% | viability, T/C [11] 42.4%
39.4 nM: IC50 (second compound 0.00949 µM)

CC(=O)OC12COC1CC(O)C1(C)C(=O)C(O)C3=C(C)C(OC(=O)C(O)C(NC(=O)OC(C)(C)C)c4ccccc4)CC(O)(C(OC(=O)c4ccccc4)C21)C3(C)C (centres undefined) + CCn1c(-c2cc(N3CCN(C)CC3)cnc2C(C)OC)c2c3cc(ccc31)-c1csc(n1)CC(NC(=O)C1CC1C)C(=O)N1CCCC(N1)C(=O)OCC(C)(C)C2
< 31.6 nM: IC50 (second compound 0.000949 µM) | IC50 (second compound 0.003 µM) | IC50 (second compound 0.00949 µM) | IC50 (second compound 0.03 µM) | IC50 (second compound 0.0949 µM) | IC50 (second compound 0.3 µM)
active: viability, T/C [1] 0.9% | viability, T/C [2] 0.92% | viability, T/C (second compound 0.000949 µM, first compound 0.316 µM) 1.34% | viability, T/C (second compound 0.000949 µM, first compound 1 µM) 1.14% | viability, T/C (second compound 0.000949 µM, first compound 3.16 µM) 1.74% | viability, T/C (second compound 0.000949 µM, first compound 10 µM) 1.22% | viability, T/C [3] 1.12% | viability, T/C [4] 1.88% | viability, T/C (second compound 0.003 µM, first compound 0.316 µM) 1.04% | viability, T/C (second compound 0.003 µM, first compound 1 µM) 0.64% | viability, T/C (second compound 0.003 µM, first compound 3.16 µM) 1.46% | viability, T/C (second compound 0.003 µM, first compound 10 µM) 0.97% | viability, T/C [5] 1.36% | viability, T/C [6] 1.42% | viability, T/C (second compound 0.00949 µM, first compound 0.316 µM) 1.07% | viability, T/C (second compound 0.00949 µM, first compound 1 µM) 1.07% | viability, T/C (second compound 0.00949 µM, first compound 3.16 µM) 0.91% | viability, T/C (second compound 0.00949 µM, first compound 10 µM) 1.16% | viability, T/C [7] 1.81% | viability, T/C [8] 0.83% | viability, T/C (second compound 0.03 µM, first compound 0.316 µM) 0.75% | viability, T/C (second compound 0.03 µM, first compound 1 µM) 1.71% | viability, T/C (second compound 0.03 µM, first compound 3.16 µM) 0.99% | viability, T/C (second compound 0.03 µM, first compound 10 µM) 1.17% | viability, T/C [9] 1.09% | viability, T/C [10] 0.75% | viability, T/C (second compound 0.0949 µM, first compound 0.316 µM) 0.6% | viability, T/C (second compound 0.0949 µM, first compound 1 µM) 0.56% | viability, T/C (second compound 0.0949 µM, first compound 3.16 µM) 1.05% | viability, T/C (second compound 0.0949 µM, first compound 10 µM) 0.51% | viability, T/C [11] 0.99% | viability, T/C [12] 0.51% | viability, T/C (second compound 0.3 µM, first compound 0.316 µM) 0.87% | viability, T/C (second compound 0.3 µM, first compound 1 µM) 0.72% | viability, T/C (second compound 0.3 µM, first compound 3.16 µM) 0.64% | viability, T/C (second compound 0.3 µM, first compound 10 µM) 0.46%
